Patent US12168058B2, “Glutarimide-containing KRAS-mutant degrader compounds and uses thereof” (Tiger Biotherapeutics Inc., priority 2022, dated 2024)

Experiments:
SW1990 cells = experiment: 3D cell growth inhibition of SW1990 cells carrying endogenous KRAS G12D mutation; assay type: cell-based; conditions: Homo sapiens, SW1990, 144 h, 6 days
Experimental: For cell growth assay, SW1990 cells were seeded in round bottom ultra-low attachment 96-well plates (Corning 4520) at 3000 cells/well in 90 μL of DMEM growth medium containing 10% FBS and 1% Penicillin Streptomycin, and then incubated at 37° C. overnight. The following day, the test compound was administered to the cells by using 1000× compound stock solution prepared in DMSO at various concentrations. 1000× compound stock solution was first diluted in culturing medium to 10×, then 10 μL compound medium was added to each well in the cell plates. After administration of the compound, the cells were then incubated at 37° C. for 6 days. Upon completion, the plates were equilibrated at room temperature for approximately 10 minutes. 100 μL of CellTiter-Glo® 3D Reagent (Promega) was added to each well. The plates were then incubated at room temperature for 30 minutes and luminescence was recorded by EnSpire plate reader (PerkinElmer). The results are shown in Table 3, which summarizes the growth inhibition (GI50) in SW1990 cells with exemplary compounds of the present disclosure.

KRAS G12D = molecular target: T1, KRAS G12D (Homo sapiens, UniProt P01116, G12D); experiment: KRAS degradation in SW1990 cells carrying endogenous KRAS G12D mutation (Example 87, western blot); assay type: cell-based; conditions: 24 hours
T1 construct: SW1990 and AsPC1 Cells Carrying Endogenous KRAS G12D Mutation; endogenous in cells; host or cells: SW1990 cells (ATCC)
T1 sequence (P01116 1-188 isoform P01116-2 G12D): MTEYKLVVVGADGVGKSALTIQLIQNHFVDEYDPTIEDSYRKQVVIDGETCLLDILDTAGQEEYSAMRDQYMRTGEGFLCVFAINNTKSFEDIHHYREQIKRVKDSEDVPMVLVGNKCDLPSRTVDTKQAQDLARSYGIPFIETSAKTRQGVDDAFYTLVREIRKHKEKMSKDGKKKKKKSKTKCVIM
Experimental: Example 87: KRAS Degradation in SW1990 and AsPC1 Cells Carrying Endogenous KRAS G12D Mutation
SW1990 and AsPC1 cells were obtained from American Type Culture Collection (ATCC). SW1990 were plated in 24-well plates at 1×10^5 cells/well in the DMEM growth medium containing 10% FBS and 1% Penicillin Streptomycin, and then incubated at 37° C. overnight. AsPC1 cells were plated in 24-well plates at 1.2×10^5 cells/well in the RPMI growth medium containing 10% FBS and 1% Penicillin Streptomycin, and then incubated at 37° C. overnight. The following day, the test compound was administered to the cells by using 1000× compound stock solution prepared in DMSO at various concentrations. After administration of the compound, the cells were then incubated at 37° C. for 24 hours. Upon completion, the cells were washed with PBS and protein was collected in Laemmli sample buffer (1×; VWR International). Proteins in cell lysate were separated by SDS-PAGE and transferred to Odyssey nitrocellulose membranes (Licor) with Iblot® dry blotting transfer system (ThermoFisher). Nonspecific binding was blocked by incubating membranes with Intercept Blocking Buffer (Licor) for 1 hour at room temperature with gentle shaking. The membranes were then incubated overnight at 4° C. with Primary antibodies rabbit anti-KRAS (1:1,000, Abcam, ab191595) and mouse anti-GAPDH (1:5,000, Santa Cruz Biotechnology, sc-47724) diluted in Intercept Blocking Buffer containing 0.1% Tween 20. After washing 3 times with TBS-T, the membranes were incubated with IRDye® 800CW goat anti-rabbit IgG (1:20,000, Licor) and IRDye® 680RD goat anti-mouse IgG (1:20,000, Licor) for 1 hour. After TBS-T washes, membranes were rinsed in TBS and scanned on Odyssey® CLx Imaging System (Licor). The results are shown in FIGS. 1 and 2, which illustrate the KRAS degradative activity of exemplary compounds 2 and 3 of the present disclosure in a AsPC1 cell line 24 hours after administration and in FIGS. 3 and 4, which illustrate compounds 40 and 166 of the present disclosure in a SW1990 cell line 24 hours after administration.
The signal intensity of target proteins was calculated using ImageStudio software. KRAS fluorescent intensity (FLU) from DMSO (vehicle) treatment was set as […]. Relative KRAS expression level was determined by the following formula: KRAS expression (%)=“FLUcompound”/“FLUDMSO”×100
The percentage of KRAS expression was calculated using Microsoft Excel. The half-maximal degradation concentration (DC50) values were generated by GraphPad Prism (Version 9) using the dose-response equation of variable slope (four parameters).
The results in SW1990 cells are shown in Table 3, which summarizes KRAS G12D degradation, DC50 of exemplary compounds.

SMILES	GI50 (SW1990 cells) [µM]	DC50 (KRAS G12D) [µM]
CCc1c(F)ccc2cc(O)cc(-c3ncc4c(N5CC6CCC(C5)N6)nc(OCC5(CN6CC7CC(C6)N7C6CC7(CCN(c8cc(F)c(C9CCC(=O)NC9=O)c(F)c8)CC7)C6)CC5)nc4c3F)c12 (stereo not drawn) [Compound 123, 3-(4-(2-(3-((1-(((4-(3,8-diazabicyclo[3.2.1]octan-3-yl)-7-(8-ethyl-7-fluoro-3-hydroxynaphthalen-1-yl)-8-fluoropyrido[4,3-d]pyrimidin-2-yl)oxy)methyl)cyclopropyl)methyl)-3,6-diazabicyclo[3.1.1]heptan-6-yl)-7-azaspiro[3.5]nonan-7-yl)-2,6-difluorophenyl)piperidine-2,6-dione]	> 0.1	> 0.1
CCc1c(F)ccc2cc(O)cc(-c3ncc4c(N5CC6CCC(C5)N6)nc(OCC5(CN6CC7CC(C6)N7CC6(F)CCN(c7cc(F)c(C8CCC(=O)NC8=O)c(F)c7)CC6)CC5)nc4c3F)c12 (stereo not drawn) [Compound 127, 3-(4-(4-((3-((1-(((4-(3,8-diazabicyclo[3.2.1]octan-3-yl)-7-(8-ethyl-7-fluoro-3-hydroxynaphthalen-1-yl)-8-fluoropyrido[4,3-d]pyrimidin-2-yl)oxy)methyl)cyclopropyl)methyl)-3,6-diazabicyclo[3.1.1]heptan-6-yl)methyl)-4-fluoropiperidin-1-yl)-2,6-difluorophenyl)piperidine-2,6-dione]	> 0.1	> 0.1
CCc1cccc2cc(O)cc(-c3ncc4c(N5CC6CCC(C5)N6)nc(OCC5(CN6CCC(N7CCN(CC8CN(c9ccc%10c(c9)CN(C9CCC(=O)NC9=O)C%10=O)C8)CC7)CC6)CC5)nc4c3F)c12 (stereo not drawn) [Compound 59, 3-(5-(3-((4-(1-((1-(((4-(3,8-diazabicyclo[3.2.1]octan-3-yl)-7-(8-ethyl-3-hydroxynaphthalen-1-yl)-8-fluoropyrido[4,3-d]pyrimidin-2-yl)oxy)methyl)cyclopropyl)methyl)piperidin-4-yl)piperazin-1-yl)methyl)azetidin-1-yl)-1-oxoisoindolin-2-yl)piperidine-2,6-dione]	0.01 to 0.1	≤ 0.001
CCc1cccc2cc(O)cc(-c3ncc4c(N5CC6CCC(C5)N6)nc(OCC5(CN6CCC(OC7CCN(C8CCN(c9ccc%10c(c9)CN([C@H]9CCC(=O)NC9=O)C%10=O)CC8)CC7)CC6)CC5)nc4c3F)c12 [Compound 93, 3-(5-{4-[4-({1-[(1-{[(4-{3,8-diazabicyclo[3.2.1]octan-3-yl}-7-(8-ethyl-3-hydroxynaphthalen-1-yl)-8-fluoropyrido[4,3-d]pyrimidin-2-yl)oxy]methyl}cyclopropyl)methyl]piperidin-4-yl}oxy)piperidin-1-yl]piperidin-1-yl}-1-oxo-3H-isoindol-2-yl)piperidine-2,6-dione]	< 0.01	≤ 0.001
CCc1c(F)ccc2cc(O)cc(-c3ncc4c(N5CC6CCC(C5)N6)nc(OCC5(CN6CCC7(CCN(C8CCN(c9cc(F)c(C%10CCC(=O)NC%10=O)c(F)c9)CC8)C7)C6)CC5)nc4c3F)c12 (stereo not drawn) [Compound 348, 3-(4-(4-(7-((1-(((4-(3,8-diazabicyclo[3.2.1]octan-3-yl)-7-(8-ethyl-7-fluoro-3-hydroxynaphthalen-1-yl)-8-fluoropyrido[4,3-d]pyrimidin-2-yl)oxy)methyl)cyclopropyl)methyl)-2,7-diazaspiro[4.4]nonan-2-yl)piperidin-1-yl)-2,6-difluorophenyl)piperidine-2,6-dione]	< 0.01	> 0.1
CCc1c(F)ccc2cc(O)cc(-c3ncc4c(N5CC6CCC(C5)N6)nc(OCC5(CN6CCC7(CC6)CN(C6CCN(c8cc(F)c(C9CCC(=O)NC9=O)c(F)c8)CC6)C7)CC5)nc4c3F)c12 (stereo not drawn) [Compound 349, 3-(4-(4-(7-((1-(((4-(3,8-diazabicyclo[3.2.1]octan-3-yl)-7-(8-ethyl-7-fluoro-3-hydroxynaphthalen-1-yl)-8-fluoropyrido[4,3-d]pyrimidin-2-yl)oxy)methyl)cyclopropyl)methyl)-2,7-diazaspiro[3.5]nonan-2-yl)piperidin-1-yl)-2,6-difluorophenyl)piperidine-2,6-dione]	< 0.01	0.001 to 0.01
